Experimental data reported in US20240158448A1, “MULTIVALENT NANO-'SELF' PEPTIDES AND USES THEREOF” (THE TRUSTEES OF THE UNIVERSITY OF PENNSYLVANIA, priority 2021, published 2024).
“Also recorded” adds a separate entry of the source. No end group written: not given here.

What was measured:
human THP-1 macrophages [1] = test: In vitro phagocytosis assay: opsonized human RBCs engulfed by peptide-treated THP-1 macrophages; format: cell-based
Experimental: In vitro phagocytosis assay. Fresh human RBCs were washed twice with 50 mM EDTA (Thermo Fischer) in PBS (Gibco) then twice with 5% FBS in PBS. RBCs were opsonized with 20 μg/mL rabbit anti-human RBC antibody (Rockland) in 5% FBS for 1 hour at RT with shaking. For CD47 blocked RBCs, 5 μg/mL of mouse anti-human CD47 (B6H12; BD Biosciences) were added. Thereafter, RBCs were washed with PBS three times and stained with PKH26 dye (1:800 dilution in PBS; Sigma) for 1 hour at RT with shaking in the dark. RBCs were washed and resuspended in PBS.
THP-1 monocytes were PMA differentiated in RPMI for 48 hours. Macrophages were then washed with RPMI media three times. For SIRPα blocked THP-1 macrophages, 20 nM, 1 μM or 50 μM of the nano—Self peptides were incubated with the THP-1 macrophages for 1 hour at 37 ° C., 5% CO2 and 95% humidity. Those THP-Is were then washed with RPMI three times.
(§1) CO2 and 95% humidity. Macrophages were then washed with RPMI three times. Adherent and uninternalized RBCs were lysed with water for 30 seconds followed by immediate replacement with RPMI media. In order to distinguish remaining adherent RBCs from internalized RBCs, opsonized RBCs were stained with AlexaFluor 647 donkey anti-rabbit (binds to rabbit polyclonal opsonin on RBC; Invitrogen) IgG (1:1000) while unopsonized, CD47 blocked RBCs were stained with AlexaFluor 647 donkey anti-mouse (binds to mouse monoclonal anti-CD47 on RBCs; Invitrogen) IgG (1:1000) for 30 minutes. After washing, macrophages were fixed with 4% formaldehyde for 15 minutes at RT, washed with PBS, stained with 1 μg/mL Hoechst 33342, and then washed with PBS again. Fluorescence imaging was performed as described elsewhere herein and quantification was done using ImageJ. At least 200 cells were analyzed and experiments were repeated at least three times.

[2] = tested on: mouse J774A.1 macrophages; test: In vitro phagocytosis assay: opsonized human RBCs engulfed by mouse J774A.1 macrophages; format: cell-based; conditions: saturating / 50 μM peptide
Experimental: as §1, with “In vitro phagocytosis assay. […] For CD47 blocked RBCs, 5 μg/mL of mouse anti-human CD47 (B6H12; BD Biosciences) were added. Thereafter, RBCs were washed with PBS three times and stained with PKH26 dye (1:800 dilution in PBS; Sigma) for 1 hour at RT with shaking in the dark. RBCs were washed and resuspended in PBS. J774A.1 macrophages were plated for 24 hours in RPMI. For SIRPα blocked J774A.1 macrophages, the same peptide blocking procedure as described elsewhere herein was used with the addition of a positive control using 5 μg/mL rat anti-mouse SIRPα ([…]; BD Biosciences). […] CO2” for “CO2”

THP-1 macrophages = test: Phosphotyrosine (pTyr) staining of THP-1 macrophages; format: cell-based, human; conditions: 50 μM peptide
Experimental: Phosphotyrosine (pTyr) staining. THP-1 monocytes were PMA differentiated for 48 hours. Macrophages were washed with RPMI three times then incubated with 50 μM and 20 nM of either nS-F or nS-FF for 1 hour at 37° C., 5% CO2 and 95% humidity. The same conditions were replicated with the addition of 5 μg/mL anti-CD47. Excess peptide was washed with PBS then macrophages were fixed. […] After washing with PBS, the macrophages were incubated with 1:100 mouse anti-pTyr (Santa Cruz Biotechnology) for 1 hour at room temperature with shaking. Macrophages were washed with PBS then stained with AlexaFluor 488 donkey anti-mouse (1:1000; Invitrogen) and 1 μg/mL Hoechst 33342 for 1 hour with shaking then washed again. Fluorescence imaging and quantification was performed as described elsewhere herein.

[3] = tested on: mouse bone marrow derived macrophages (BMDMs); test: Phagocytosis of anti-TYRP1 opsonized B16F10 melanoma cells by mouse bone marrow derived macrophages; format: cell-based; conditions: 50 μM peptide
Experimental: B16F10 cells: Bone marrow cells were isolated from femurs and tibias of healthy C57BL6/J mice (The Jackson Laboratory) and cultured in 10-cm petri dishes containing IMDM (Gibco) supplemented with 10% v/v FBS, 1% v/v penicillin/streptomycin, and 1:10,000 macrophage colony stimulating factor cytokine (M-CSF; Biolegend) for 7 days at 37° C., 5% CO2 and 95% humidity. All animal experiments were performed according to protocols approved by the University of Pennsylvania's IACUC (protocol #805977 and #804455). The resulting mouse bone marrow derived macrophages (BMDMs) were washed with PBS containing Ca2^+/Mg2^+ (Gibco) then detached with 0.25% trypsin-EDTA (Gibco) and re-plated in 6-well tissue culture plates using IMDM+M-CSF for 24 hours.
Mouse melanoma B16F10 cells were washed with PBS containing Ca2-/Mg2- and then trypsinized with 0.05% trypsin-EDTA. After washing twice with PBS, the cells were labeled with 1:10,000 CFDA—SE (Thermo Fisher) in PBS for 10 minutes. B16F10 cells were opsonized with 10 μg/mL anti-TYRP1 (TA99; Bio X Cell) in PBS for 2 hours at 4° C.with occasional inverting. For CD47 blocked B16F10 cells, 5 μg/mL of […] were added. During the incubation time, the BMDMs were washed with media then stained with 1:2,000 CellTracker Deep Red (Thermo Fisher) in PBS with Ca2^+/Mg2^+ for 10 min. After washing, 50 μM of the nano—Self peptides were incubated with the BMDMs for 1 hour at 37° C., 5% CO2 and 95% humidity. Finally, BMDMs were washed twice with PBS and then twice with serum-free IMDM.
Without removing the supernatant, the opsonized melanoma cells were added to the labeled BMDMs at a ratio of 2:1 for 2 hours at 37° C., 5% CO2 and 95% humidity. During the last 15 minutes of the assay, the cells were Hoechst stained. The wells were washed with serum free IMDM then fixed with 4% formaldehyde for 15 minutes at RT, and PBS washed. Fluorescence imaging was performed using an Olympus IX71 with a digital EMCCD camera (Cascade 512B) and a 40×/0.6 NA objective. Quantification was done with ImageJ (NIH). At least 200 cells were analyzed and two-tailed student's t-test was used to determine statistical significance.

human THP-1 macrophages [4] = test: Residual adhesion of opsonized RBCs to macrophages; format: cell-based; conditions: 50 μM peptide
Source text: To measure the residual adhesion of RBCs and distinguish it from internalization by macrophages, the engulfment assay with human RBCs used a secondary antibody against the opsonizing IgG, which allowed us to clearly see RBCs in contact with macrophages that are not internalized (FIG. 29C). The cells are also firmly attached to the macrophages because the culture dishes were rinsed after fixation and secondary antibody labeling. […] All of the RBCs in these samples are equally opsonized with IgG that binds Fc-receptors (FcR's) on macrophages, and so differences in measured adhesion implicate differences in the CD47—SIRPα interaction.

[5] = tested on: A549 (SIRPα positive) cells; test: Confocal live staining with FAM-labeled peptides, A549 cells; format: binding, human; conditions: 100 uM and 1 μM FAM-labeled peptide
Experimental: SIRPα staining and confocal imaging. THP-1 monocytes were PMA-differentiated in RPMI 1640 for 24 hours. J774A.1, A549, and COS-1 cells were plated for 24 hours in media, respectively. Cells were washed with respective media prior to addition of fluorescent peptides. The peptides were left to incubate for 1 hour at 37 ° C., 5% CO2 and 95% humidity. For fixed cell staining, cells were incubated with 4% formaldehyde (Pierce) for 15 minutes prior to the addition of fluorescent peptides whereas for live cell staining, fixation was done after incubation with the FAM-labeled peptides. Nuclei were stained with 1 μg/mL Hoechst 33342 (Invitrogen). Cells were the washed PBS three times before analysis. Fluorescence imaging of fixed cells was performed using an Olympus IX71 with a digital EMCCD camera (Cascade 512B) and a 40×/0.6 NA objective. […] Quantification was done with ImageJ (NIH).
In order to visualize the uneven binding of the peptides to the surface of the macrophages, a live staining experiment of THP-1, J774A.1, and A549 cells, which all express SIRPα at different levels, was performed with FAM-labeled nS-wt and nS-X and analyzed by confocal microscopy (FIG. 11). […] Fluorescence of nS-X was consistently lower on THP-1 and J774A.1 macrophages relative to nS-wt. […]

soluble human SIRPα = target: T1, soluble human SIRPα (Homo sapiens, UniProt P78324); test: Binding of biotinylated peptides on streptavidin beads to soluble SIRPα
T1 construct: Soluble human SIRPα fused with glutathione s-transferase (SIRPα-GST); GST (glutathione S-transferase); made in house
Source text: SIRPα Expression and Purification. Soluble human SIRPα fused with glutathione s-transferase (SIRPα-GST) was expressed and purified as previously published (Tsai, et al., 2008, J. Cell Biol. 180:989-1003).
Peptide biotinylation: NHS-biotin (Thermo Fischer) was mixed with nS-wt and nS-V, respectively, following the manufacturer's protocol. The biotinylated peptides were dialyzed against PBS.
Streptavidin-beads binding: Streptavidin-coated polystyrene beads of 2.1 μm radius (Spherotech) were washed and blocked 3x in PBS plus 0.4% BSA. nS-wt-biotin or nS-V-biotin were incubated with the beads for 1 hour at room temperature with shaking. Beads were washed with PBS, then incubated with recombinant SIRPα for 1 hour in ice. Streptavidin beads were labeled with rabbit anti-streptavidin-FITC (Invitrogen) and SIRPα was stained with mouse anti-SIRPα-allophycocyanin (anti-SIRPα-APC; Invitrogen).

T1 sequence (P78324 31-373 limits assumed): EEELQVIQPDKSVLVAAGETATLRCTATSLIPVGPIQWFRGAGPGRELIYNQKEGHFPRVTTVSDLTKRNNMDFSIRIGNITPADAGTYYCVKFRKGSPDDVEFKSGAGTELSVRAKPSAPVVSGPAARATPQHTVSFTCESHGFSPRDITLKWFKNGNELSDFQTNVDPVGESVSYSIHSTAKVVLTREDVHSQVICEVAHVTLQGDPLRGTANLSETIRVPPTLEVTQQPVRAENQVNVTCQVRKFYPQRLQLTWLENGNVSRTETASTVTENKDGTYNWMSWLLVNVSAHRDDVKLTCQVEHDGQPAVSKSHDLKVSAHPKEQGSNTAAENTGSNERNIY

VTELFREG (VTELFREG-NH2) [nS-F, nano-Self peptide with Thr to Phe mutation]
effect on phagocytosis of opsonized RBCs (words) (human THP-1 macrophages [1]; 20 nM peptide): did not significantly change the amount of macrophage eating relative to anti-CD47 treatment; also recorded: only modest activity
effect on phagocytosis of opsonized RBCs (words) (human THP-1 macrophages [1]; saturating / 50 μM peptide): significantly greater than any other peptide tested; also recorded: Maximum levels of phagocytic macrophages
increase of macrophage phagocytosis relative to nS-wt (human THP-1 macrophages [1]; saturating peptide): roughly 25%
effect on phagocytosis of opsonized RBCs (words) [2]: significantly greater than any other peptide tested
effect on pTyr signal (THP-1 macrophages): also suppressed pTyr
effect on phagocytosis of opsonized WT and SIRPα KO B16 cells [3]: Maximum levels of phagocytic macrophages
residual adhesion of opsonized RBCs to macrophages (human THP-1 macrophages [4]): lowest amount of residual adhesion to macrophages

LETVEGTR (LETVEGTR-NH2) [nS-X, scrambled control peptide]
effect on phagocytosis of opsonized RBCs (words) (human THP-1 macrophages [1]; saturating / 50 μM peptide): no effect is observed; also recorded: unaffected; also recorded: do not affect baseline engulfment of opsonized RBCs; also recorded: does not affect opsonization-driven eating of RBCs
effect on phagocytosis of opsonized RBCs (words) (human THP-1 macrophages [1]; saturating / 50 μM peptide, listed as nSX): do not have effects on phagocytosis
effect on pTyr signal (THP-1 macrophages): inhibition of phosphorylation is not observed
effect on pTyr signal (THP-1 macrophages; listed as nSX): had no effect on pTyr
effect on phagocytosis of opsonized WT and SIRPα KO B16 cells [3]: no effect; also recorded: does not affect opsonization-driven eating
residual adhesion of opsonized RBCs to macrophages (human THP-1 macrophages [4]): predominantly adherent RBCs
binding to A549 cells [5]: fluorescence was not observed at either concentration

VTELVREG [nS-V, VTELVREG]
effect on phagocytosis of opsonized RBCs (words) (human THP-1 macrophages [1]; 20 nM peptide): did not significantly change the amount of macrophage eating relative to anti-CD47 treatment
effect on phagocytosis of opsonized RBCs (words) (human THP-1 macrophages [1]; saturating / 50 μM peptide): activity profiles in phagocytosis assays that are similar to the monovalent nS-F
SIRPα binding to peptide-coated beads (soluble human SIRPα): fluorescence is only observed in the presence of biotinylated peptide
